# Source: US7365211B2, “Heterocyclic GABAA subtype selective receptor modulators” (Roche Palo Alto LLC, priority 2003, dated 2008)
# “And” between values parts separate entries of the source, which are not always exact repeats. Equal entries are not always repeated. Structures can show the parent of a compound that is named as a salt.
# Molecular target: T1, GABAA α1β2γ2 (Homo sapiens, UniProt P14867+P18507+P47870)
# T1 construct: expressed in transfected cells; host or cells: HEK293
# Test: 35S-TBPS binding assay (competition), HEK293 membranes with GABAA α1β2γ2 construct
# Conditions: 35S-TBPS (5 nM) competition, GABA 1 μM, 2 hours at room temperature, read-out: pIC50 α1β2γ2 (converted)
# Method: (§1) The binding assay is based on the assay reported by K. Gee et al., Eur. J. Pharmacol. 1987 136:419-423.
# (§2) Homogenate preparation: Membrane preparations of HEK293 cells containing either GABAA α1β2γ2 or GABAA α2β3γ2 constructs were performed according to a modified procedure previously described by Gee et al. (supra). Whole HEK 293 cells in D-PBS (calcium/magnesium free) buffer adjusted to pH 7.4 were centrifuged at 7,280×g for 20 m. After discarding the supernatant, the pellet was resuspended in the buffer and centrifuged at 1,820×g for 10 m. Afterwards, the supernatant was discarded and the pellet resuspended in ice-cold preparation buffer (50 mM Tris HCl pH 7.4, 4° C. and 150 mM KCl), homogenized for 30 sec using a Brinkmann Polytron PT3000 (setting 6) and centrifuged at 48,000×g for 30 m at 4° C. The centrifugation and homogenization procedure was repeated two more times for a total of 3 times before resuspending the membranes at a final protein concentration of 0.5 mg/mL. Aliquots (30 mL) of the final membrane preparation were then centrifuged at 48,000×g for 30 m, and the resulting pellets were stored at −80° C. until required.
# (§3) 35S-TBPS binding assay. Membrane pellets containing either GABAA α1β2γ2 or GABAA α2β3γ2 constructs were thawed on ice, resuspended in 10 mL of 50 mM Tris HCl pH 7.4, 4° C. and 150 mM KCl and centrifuged at 48,000×g, 30 m at 4° C. After discarding the supernatant, the pellet was resuspended in 30 mL incubation buffer (50 mM Tris HCl pH 7.4, 25° C. and 150 mM KCl) at approximately 0.5 mg/mL protein concentration. In ^35S-TBPS competition studies, HEK293 membranes were incubated with ^35S-TBPS (5 nM final) and GABA (1 μM) in the absence or presence of competitor at concentrations ranging from 0.01 nM to 10 μM in 125 μL incubation buffer for 2 hours at room temperature (˜22° C.). Non-specific binding was assayed with picrotoxin (100 μM final concentration). […] Measurement of bound radioactivity was performed using a Packard Microplate 96 well topcount scintillation counter. […]
row,Structure (SMILES),IC50 [nM]
1,"Cc1c2cccc(-c3ccc(Cl)cc3Cl)c2nn1C [A14, 7-(2,4-Dichloro-phenyl)-2,3-dimethyl-2H-indazole; hydrochloride]",295
2,"C=Cc1c2cccc(-c3ccc(Cl)cc3Cl)c2nn1C [A17, 7-(2,4-Dichloro-phenyl)-2-methyl-3-vinyl-2H-indazole]",1170
3,"Cn1nc2c(-c3ccc(Cl)cc3Cl)cccc2c1Br [A27, 3-Bromo-7-(2,4-dichloro-phenyl)-2-methyl-2H-indazole]",575

# Molecular target: T2, GABAA α2β3γ2 (Homo sapiens, UniProt P18507+P28472+P47869)
# T2 construct: expressed in transfected cells; host or cells: HEK293
# Test: 35S-TBPS binding assay (competition), HEK293 membranes with GABAA α2β3γ2 construct
# Conditions: 35S-TBPS (5 nM) competition, GABA 1 μM, 2 hours at room temperature, read-out: pIC50 α2β3γ2 (converted)
# Method: as §1, §2, §3
row,Structure (SMILES),IC50 [nM]
1,"Cc1c2cccc(-c3ccc(Cl)cc3Cl)c2nn1C [A14, 7-(2,4-Dichloro-phenyl)-2,3-dimethyl-2H-indazole; hydrochloride]",30.9
2,"C=Cc1c2cccc(-c3ccc(Cl)cc3Cl)c2nn1C [A17, 7-(2,4-Dichloro-phenyl)-2-methyl-3-vinyl-2H-indazole]",26.3
3,"Cn1nc2c(-c3ccc(Cl)cc3Cl)cccc2c1Br [A27, 3-Bromo-7-(2,4-dichloro-phenyl)-2-methyl-2H-indazole]",13.5

# Tested on: not given
# Test: not given
# Conditions: not given
row,Structure (SMILES),melting point
1,Cl.Cn1cc2cccc(-c3ccc(Cl)cc3Cl)c2n1,133 to 147 °C
2,CC/C=C(\CCC)c1c2cccc(-c3ccc(Cl)cc3Cl)c2nn1C.Cl,148 to 150 °C
3,Cl.Cn1cc2ccnc(-c3ccc(Cl)cc3Cl)c2n1,190.9 to 195.5 °C
4,CCCN(CCC)c1c2cccc(-c3ccc(Cl)cc3Cl)c2nn1C.Cl,139 to 140 °C
5,COc1ccc(-c2cccc3c(N(C)C)n(C)nc23)c(C)c1.Cl,166 to 167 °C
6,CNCc1c2cccc(-c3ccc(Cl)cc3Cl)c2nn1C.Cl,211.1 to 213 °C
7,Cc1cc(C)c(-c2cccc3c(N(C)C)n(C)nc23)c(C)c1.Cl,169.9 to 171.9 °C
8,CC(=O)N(C)Cc1c2cccc(-c3ccc(Cl)cc3Cl)c2nn1C.Cl,146.2 to 147.8 °C
9,Cl.Cn1nc2c(-c3ccc(Cl)cc3Cl)cccc2c1CNN,172.5 to 176 °C
10,COC(=O)NCc1c2cccc(-c3ccc(Cl)cc3Cl)c2nn1C.Cl,146.3 to 148.6 °C
11,Cn1nc2c(-c3ccc(Cl)cc3Cl)cccc2c1COC(N)=O,184 to 185.5 °C
12,"Cc1cc(C)c(-c2cccc3cn(C)nc23)c(C)c1 [A5, 2-Methyl-7-(2,4,6-trimethyl-phenyl)-2H-indazole]",180 to 182 °C
13,"Cc1cc(C#N)ccc1-c1cccc2cn(C)nc12 [A6, 3-Methyl-4-(2-methyl-2H-indazol-7-yl)-benzonitrile]",101 to 105 °C
14,"C=Cc1c2cccc(-c3c(C)cc(C)cc3C)c2nn1C [A18, 2-Methyl-7-(2,4,6-trimethyl-phenyl)-3-vinyl-2H-indazole]",84.9 to 95.4 °C and 85 to 95 °C
15,"C#Cc1c2cccc(-c3ccc(Cl)cc3Cl)c2nn1C [A20, 7-(2,4-Dichloro-phenyl)-3-ethynyl-2-methyl-2H-indazole]",129.9 to 130.9 °C
16,"CO/N=C\c1c2cccc(-c3ccc(Cl)cc3Cl)c2nn1C [A22, 7-(2,4-Dichloro-phenyl)-2-methyl-2H-indazole-3-carbaldehyde O-methyl-oxime]",159.2 to 160.5 °C
17,"Cn1nc2c(-c3ccc(Cl)cc3Cl)cccc2c1Br [A27, 3-Bromo-7-(2,4-dichloro-phenyl)-2-methyl-2H-indazole]",137 to 139 °C

row,Structure (SMILES),melting point
1,"Cn1nc2c(-c3ccc(Cl)cc3Cl)cccc2c1C#N [A29, 7-(2,4-Dichloro-phenyl)-2-methyl-2H-indazole-3-carbonitrile]",137 to 139 °C
2,"Cn1nc2c(-c3ncc(Cl)cc3Cl)cccc2c1Br [A32, 3-Bromo-7-(3,5-dichloro-pyridin-2-yl)-2-methyl-2H-indazole]",154.5 to 156.2 °C
3,"Cn1cc2cncc(-c3ccc(Cl)cc3Cl)c2n1 [A34, 7-(2,4-Dichloro-phenyl)-2-methyl-2H-pyrazolo[4,3-c]pyridine]",153.9 to 155.3 °C
4,"Cn1cc2nccc(-c3ccc(Cl)cc3Cl)c2n1 [A35, 7-(2,4-Dichloro-phenyl)-2-methyl-2H-pyrazolo[4,3-b]pyridine]",160.5 to 162.8 °C
5,"Cn1nc2c(-c3ccc(Cl)cc3Cl)cccc2c1CNC(=O)N1CCOCC1 [C11, Morpholine-4-carboxylic acid [7-(2,4-dichloro-phenyl)-2-methyl-2H-indazol-3-ylmethyl]-amide]",98.8 to 104.5 °C
6,"CN(C)C(=O)NCc1c2cccc(-c3ccc(Cl)cc3Cl)c2nn1C [C13, 3-[7-(2,4-Dichloro-phenyl)-2-methyl-2H-indazol-3-ylmethyl]-1,1-dimethyl-urea]",101.9 to 105.1 °C
7,"CN(C)C(=O)Nc1c2cccc(-c3ccc(Cl)cc3Cl)c2nn1C [C15, 3-[7-(2,4-Dichloro-phenyl)-2-methyl-2H-indazol-3-yl]-1,1-dimethyl-urea]",123.3 to 126.3 °C
8,"Cn1nc2c(-c3ccc(Cl)cc3Cl)cccc2c1S(N)(=O)=O [D3, 7-(2,4-Dichloro-phenyl)-2-methyl-2H-indazole-3-sulfonic acid amide]",170.7 to 173.6 °C
9,"Cn1nc2c(-c3ccc(Cl)cc3Cl)cccc2c1S(=O)(=O)CCO [D5, 2-[7-(2,4-Dichloro-phenyl)-2-methyl-2H-indazole-3-sulfonyl]-ethanol]",157.8 to 161.7 °C
10,"Cn1nc2c(-c3ccc(Cl)cc3Cl)cccc2c1NS(C)(=O)=O [D15, N-[7-(2,4-Dichloro-phenyl)-2-methyl-2H-indazol-3-yl]-methanesulfonamide]",171.3 to 173.2 °C
11,"Cn1nc2c(-c3ccc(Cl)cc3Cl)cccc2c1S(C)(=O)=O [D-2, 3-Methanesulfonyl-2-methyl-7-(2,4-dichloro-phenyl)-2H-indazole]",182.1 to 183.4 °C
12,"Cc1cc(C)c(-c2cccc3c(C(C)O)n(C)nc23)c(C)c1 (stereo not drawn) [E1, 1-[2-Methyl-7-(2,4,6-trimethyl-phenyl)-2H-indazol-3-yl]-ethanol]",246 to 247 °C
13,"COCc1c2cccc(-c3ccc(Cl)cc3Cl)c2nn1C [E3, 7-(2,4-Dichloro-phenyl)-3-methoxymethyl-2-methyl-2H-indazole]",119 to 120.9 °C
14,Cn1nc2c(-c3ccc(Cl)cc3Cl)cccc2c1CO [E4],197.3 to 201.2 °C
15,"CC(=O)OCc1c2cccc(-c3ccc(Cl)cc3Cl)c2nn1C [E5, Acetic acid [7-(2,4-dichloro-phenyl)-2-methyl-2H-indazol-3-yl]-methyl ester]",131.7 to 135.2 °C
16,"CN(C)C(=O)OCc1c2cccc(-c3ccc(Cl)cc3Cl)c2nn1C [E6, Dimethyl-carbamic acid 7-(2,4-dichloro-phenyl)-2-methyl-2H-indazol-3-ylmethyl ester]",125.2 to 128 °C
